{
  "source": "the kinase profiling compilation of Christmann-Franck et al. (2016)",
  "test_in_all_cases": "KINOMEscan competition binding",
  "conditions_in_all_cases": "compound 1.0 µM",
  "key": {"[1]": {"target": "PRKAA2 (human) (UniProt P54646)"}, "[2]": {"target": "CAMKK1 (human) (UniProt Q8N5S9)"}, "[3]": {"system": "PIK3CA (human), P42336 [Q546K]"}, "[4]": {"target": "RIPK4 (human) (UniProt P57078)"}, "[5]": {"target": "MAPK4 (human) (UniProt P31152)"}, "[6]": {"target": "MAPK15 (human) (UniProt Q8TD08)"}, "[7]": {"target": "TAOK2 (human) (UniProt Q9UL54)"}, "[8]": {"target": "MARK1 (human) (UniProt Q9P0L2)", "sequence (Q9P0L2 whole entry, looked up)": "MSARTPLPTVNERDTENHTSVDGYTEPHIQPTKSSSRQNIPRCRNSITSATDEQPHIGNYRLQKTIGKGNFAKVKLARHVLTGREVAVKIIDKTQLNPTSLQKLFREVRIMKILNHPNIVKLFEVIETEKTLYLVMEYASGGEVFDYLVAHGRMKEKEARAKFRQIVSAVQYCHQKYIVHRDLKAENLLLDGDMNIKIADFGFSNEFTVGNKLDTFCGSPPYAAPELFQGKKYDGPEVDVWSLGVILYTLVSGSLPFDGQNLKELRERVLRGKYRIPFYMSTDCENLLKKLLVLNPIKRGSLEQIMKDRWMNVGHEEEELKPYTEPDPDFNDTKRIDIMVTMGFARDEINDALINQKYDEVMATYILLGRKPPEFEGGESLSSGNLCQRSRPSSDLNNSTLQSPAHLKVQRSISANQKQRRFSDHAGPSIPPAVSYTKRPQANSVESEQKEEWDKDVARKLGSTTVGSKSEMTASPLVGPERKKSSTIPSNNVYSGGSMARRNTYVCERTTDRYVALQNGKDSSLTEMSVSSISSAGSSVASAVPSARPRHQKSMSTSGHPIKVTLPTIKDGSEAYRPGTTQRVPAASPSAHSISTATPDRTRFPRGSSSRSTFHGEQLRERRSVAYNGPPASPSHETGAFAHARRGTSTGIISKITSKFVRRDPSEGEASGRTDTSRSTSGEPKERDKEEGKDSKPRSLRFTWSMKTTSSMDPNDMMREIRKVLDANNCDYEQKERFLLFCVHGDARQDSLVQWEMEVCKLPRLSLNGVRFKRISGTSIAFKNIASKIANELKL"}, "[9]": {"target": "CDK16 (human) (UniProt Q00536)"}, "[10]": {"target": "MAP3K7 (human) (UniProt O43318)"}, "[11]": {"target": "CDK14 (human) (UniProt O94921)"}, "[12]": {"target": "STK32C (human) (UniProt Q86UX6)"}, "[13]": {"target": "CDKL2 (human) (UniProt Q92772)", "sequence (Q92772 whole entry, looked up)": "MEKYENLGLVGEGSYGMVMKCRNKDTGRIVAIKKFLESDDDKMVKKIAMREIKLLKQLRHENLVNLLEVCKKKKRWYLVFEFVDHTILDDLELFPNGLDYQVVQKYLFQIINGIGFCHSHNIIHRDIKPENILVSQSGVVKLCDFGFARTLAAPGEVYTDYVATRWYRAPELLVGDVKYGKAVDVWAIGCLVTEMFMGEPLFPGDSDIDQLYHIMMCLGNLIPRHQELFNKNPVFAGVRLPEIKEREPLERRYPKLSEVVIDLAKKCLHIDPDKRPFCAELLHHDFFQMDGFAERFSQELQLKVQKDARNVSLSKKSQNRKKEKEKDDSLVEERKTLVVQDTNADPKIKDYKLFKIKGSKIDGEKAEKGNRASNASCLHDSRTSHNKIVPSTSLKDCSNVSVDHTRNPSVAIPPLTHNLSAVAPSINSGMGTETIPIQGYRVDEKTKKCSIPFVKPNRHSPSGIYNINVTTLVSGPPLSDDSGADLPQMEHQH"}, "[14]": {"target": "PIK3CB (human) (UniProt P42338)"}, "[15]": {"system": "FLT3 (human), P36888 [R834Q]"}, "[16]": {"target": "MAP3K13 (human) (UniProt O43283)"}, "[17]": {"target": "IRAK4 (human) (UniProt Q9NWZ3)"}, "[18]": {"target": "AKT1 (human) (UniProt P31749)"}, "[19]": {"target": "BMP2K (human) (UniProt Q9NSY1)"}, "[20]": {"target": "NEK9 (human) (UniProt Q8TD19)"}, "[21]": {"target": "CSNK1E (human) (UniProt P49674)", "sequence (P49674 whole entry, looked up)": "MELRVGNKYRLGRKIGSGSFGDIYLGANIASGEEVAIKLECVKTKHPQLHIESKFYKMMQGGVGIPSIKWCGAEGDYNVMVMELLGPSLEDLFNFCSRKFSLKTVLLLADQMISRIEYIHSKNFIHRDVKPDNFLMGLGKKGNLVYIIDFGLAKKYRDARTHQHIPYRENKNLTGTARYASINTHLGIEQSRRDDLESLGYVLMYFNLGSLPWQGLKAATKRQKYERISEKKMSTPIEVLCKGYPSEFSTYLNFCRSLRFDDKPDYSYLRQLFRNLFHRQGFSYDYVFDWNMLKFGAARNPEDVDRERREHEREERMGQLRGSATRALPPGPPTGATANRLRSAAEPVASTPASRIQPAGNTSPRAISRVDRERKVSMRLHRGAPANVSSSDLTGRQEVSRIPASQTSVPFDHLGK"}, "[22]": {"target": "CDK3 (human) (UniProt Q00526)", "sequence (Q00526 whole entry, looked up)": "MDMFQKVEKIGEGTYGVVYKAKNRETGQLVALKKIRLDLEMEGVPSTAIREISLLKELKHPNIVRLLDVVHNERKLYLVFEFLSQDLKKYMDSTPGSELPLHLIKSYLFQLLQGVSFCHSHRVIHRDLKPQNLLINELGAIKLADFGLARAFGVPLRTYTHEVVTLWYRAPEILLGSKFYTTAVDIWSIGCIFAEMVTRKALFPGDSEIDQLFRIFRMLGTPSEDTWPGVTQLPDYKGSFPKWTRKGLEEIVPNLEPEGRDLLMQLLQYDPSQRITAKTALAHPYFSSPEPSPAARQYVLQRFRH"}, "[23]": {"target": "NIM1 (human) (UniProt Q8IY84)"}, "[24]": {"target": "MYO3A (human) (UniProt Q8NEV4)"}, "[25]": {"target": "DAPK1 (human) (UniProt P53355)"}, "[26]": {"target": "EGFR (human) (UniProt P00533)"}, "[27]": {"target": "TNK2 (human) (UniProt Q07912)", "sequence (Q07912 whole entry, looked up)": "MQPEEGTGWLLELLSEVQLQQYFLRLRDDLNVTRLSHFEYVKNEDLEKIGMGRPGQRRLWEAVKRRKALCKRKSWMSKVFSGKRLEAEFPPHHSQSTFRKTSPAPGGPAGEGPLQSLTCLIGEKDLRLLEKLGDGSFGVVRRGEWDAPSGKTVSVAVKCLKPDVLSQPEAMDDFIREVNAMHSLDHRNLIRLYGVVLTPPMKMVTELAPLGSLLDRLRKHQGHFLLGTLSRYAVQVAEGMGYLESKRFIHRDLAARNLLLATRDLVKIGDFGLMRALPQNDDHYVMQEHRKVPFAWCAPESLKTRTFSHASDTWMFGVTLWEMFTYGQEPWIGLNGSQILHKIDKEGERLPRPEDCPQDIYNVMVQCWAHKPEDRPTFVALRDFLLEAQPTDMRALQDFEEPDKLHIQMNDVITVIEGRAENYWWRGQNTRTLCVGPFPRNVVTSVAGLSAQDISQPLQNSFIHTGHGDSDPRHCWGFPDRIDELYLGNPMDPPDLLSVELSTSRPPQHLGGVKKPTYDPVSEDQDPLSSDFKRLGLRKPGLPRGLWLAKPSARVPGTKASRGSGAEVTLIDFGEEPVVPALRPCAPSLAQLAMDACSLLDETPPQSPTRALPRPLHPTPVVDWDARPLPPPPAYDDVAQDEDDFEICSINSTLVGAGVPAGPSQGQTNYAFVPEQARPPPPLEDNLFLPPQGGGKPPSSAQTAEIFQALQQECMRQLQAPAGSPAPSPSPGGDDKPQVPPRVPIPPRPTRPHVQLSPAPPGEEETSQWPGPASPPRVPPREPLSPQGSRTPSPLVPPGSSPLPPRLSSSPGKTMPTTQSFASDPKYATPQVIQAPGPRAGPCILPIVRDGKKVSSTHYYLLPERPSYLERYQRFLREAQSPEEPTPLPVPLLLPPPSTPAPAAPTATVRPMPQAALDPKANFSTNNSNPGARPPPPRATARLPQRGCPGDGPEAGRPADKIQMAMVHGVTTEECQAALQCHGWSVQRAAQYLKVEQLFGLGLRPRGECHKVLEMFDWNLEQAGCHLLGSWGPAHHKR"}, "[28]": {"target": "STK36 (human) (UniProt Q9NRP7)"}, "[29]": {"system": "FLT3 (human), P36888 [D835H]"}, "[30]": {"target": "CLK3 (human) (UniProt P49761)"}, "[31]": {"target": "TEK (human) (UniProt Q02763)"}, "[32]": {"target": "MAPK6 (human) (UniProt Q16659)", "sequence (Q16659 whole entry, looked up)": "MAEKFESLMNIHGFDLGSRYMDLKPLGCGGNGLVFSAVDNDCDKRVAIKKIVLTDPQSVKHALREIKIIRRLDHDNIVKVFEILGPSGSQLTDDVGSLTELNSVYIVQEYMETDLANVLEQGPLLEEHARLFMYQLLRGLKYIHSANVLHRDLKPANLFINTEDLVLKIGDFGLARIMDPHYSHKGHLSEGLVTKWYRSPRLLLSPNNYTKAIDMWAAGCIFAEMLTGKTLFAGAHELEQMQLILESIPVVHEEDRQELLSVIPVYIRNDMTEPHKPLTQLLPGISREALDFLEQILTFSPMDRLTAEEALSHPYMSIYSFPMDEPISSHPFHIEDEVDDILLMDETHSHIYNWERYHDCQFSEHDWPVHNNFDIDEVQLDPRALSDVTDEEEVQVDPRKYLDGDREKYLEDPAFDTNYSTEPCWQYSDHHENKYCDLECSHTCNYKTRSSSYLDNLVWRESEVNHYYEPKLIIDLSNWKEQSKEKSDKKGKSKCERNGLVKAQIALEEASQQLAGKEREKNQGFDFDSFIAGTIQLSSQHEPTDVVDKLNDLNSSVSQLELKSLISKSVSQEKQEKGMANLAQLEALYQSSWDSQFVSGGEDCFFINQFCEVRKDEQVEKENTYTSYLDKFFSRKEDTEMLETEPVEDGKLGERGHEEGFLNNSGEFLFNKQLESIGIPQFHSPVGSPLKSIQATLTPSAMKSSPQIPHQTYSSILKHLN"}, "[33]": {"system": "CPK1 (P.falciparum)"}, "[34]": {"target": "TLK1 (human) (UniProt Q9UKI8)"}, "[35]": {"target": "BTK (human) (UniProt Q06187)"}, "[36]": {"target": "CLK2 (human) (UniProt P49760)"}, "[37]": {"target": "SYK (human) (UniProt P43405)"}, "[38]": {"system": "KIT (human), P10721 [V559D/V654A]", "sequence (P10721 whole entry V559D/V654A, looked up)": "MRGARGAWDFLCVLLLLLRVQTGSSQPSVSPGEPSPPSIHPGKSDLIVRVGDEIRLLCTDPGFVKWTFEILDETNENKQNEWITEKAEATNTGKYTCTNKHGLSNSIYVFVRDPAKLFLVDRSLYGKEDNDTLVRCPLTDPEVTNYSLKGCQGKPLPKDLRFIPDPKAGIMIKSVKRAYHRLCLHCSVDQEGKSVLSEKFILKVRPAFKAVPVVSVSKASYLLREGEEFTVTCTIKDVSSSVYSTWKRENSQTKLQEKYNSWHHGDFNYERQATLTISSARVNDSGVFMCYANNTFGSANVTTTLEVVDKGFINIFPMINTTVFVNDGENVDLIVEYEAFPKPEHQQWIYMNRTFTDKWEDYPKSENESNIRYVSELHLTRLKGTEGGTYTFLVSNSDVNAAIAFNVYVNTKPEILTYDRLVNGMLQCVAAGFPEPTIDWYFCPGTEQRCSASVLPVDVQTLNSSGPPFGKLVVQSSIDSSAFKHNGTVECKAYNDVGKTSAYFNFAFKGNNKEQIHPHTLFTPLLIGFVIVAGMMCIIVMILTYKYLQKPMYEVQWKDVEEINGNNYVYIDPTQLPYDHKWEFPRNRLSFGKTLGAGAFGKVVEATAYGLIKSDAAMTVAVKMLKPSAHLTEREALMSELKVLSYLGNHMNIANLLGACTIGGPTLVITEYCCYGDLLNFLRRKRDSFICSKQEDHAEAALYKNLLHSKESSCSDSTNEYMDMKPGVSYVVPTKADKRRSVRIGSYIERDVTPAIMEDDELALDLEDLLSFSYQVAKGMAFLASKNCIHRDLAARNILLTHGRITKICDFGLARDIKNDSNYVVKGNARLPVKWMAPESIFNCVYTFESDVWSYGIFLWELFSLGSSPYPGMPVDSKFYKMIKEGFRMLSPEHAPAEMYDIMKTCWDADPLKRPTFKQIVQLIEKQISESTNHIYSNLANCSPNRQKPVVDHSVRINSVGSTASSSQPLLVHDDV"}, "[39]": {"target": "TNNI3K (human) (UniProt Q59H18)"}, "[40]": {"target": "PIM3 (human) (UniProt Q86V86)"}, "[41]": {"target": "SLK (human) (UniProt Q9H2G2)"}},
  "data": [
    {"smiles": "COCCNCCCn1c(C(=O)CF)c(-c2ccc(C)cc2)c2c(N)ncnc21", "values": [
      {"measurement": "kinase still bound, per cent of control", "setting": "[1]", "result": 75, "unit": "%"},
      {"measurement": "kinase still bound, per cent of control", "setting": "[2]", "result": 100, "unit": "%"},
      {"measurement": "kinase still bound, per cent of control", "setting": "[3]", "result": 100, "unit": "%"},
      {"measurement": "kinase still bound, per cent of control", "setting": "[4]", "result": 100, "unit": "%"},
      {"measurement": "kinase still bound, per cent of control", "setting": "[5]", "result": 100, "unit": "%"},
      {"measurement": "kinase still bound, per cent of control", "setting": "[6]", "result": 96, "unit": "%"},
      {"measurement": "kinase still bound, per cent of control", "setting": "[7]", "result": 100, "unit": "%"},
      {"measurement": "kinase still bound, per cent of control", "setting": "[8]", "result": 90, "unit": "%"},
      {"measurement": "kinase still bound, per cent of control", "setting": "[9]", "result": 100, "unit": "%"},
      {"measurement": "kinase still bound, per cent of control", "setting": "[10]", "result": 100, "unit": "%"},
      {"measurement": "kinase still bound, per cent of control", "setting": "[11]", "result": 100, "unit": "%"},
      {"measurement": "kinase still bound, per cent of control", "setting": "[12]", "result": 100, "unit": "%"},
      {"measurement": "kinase still bound, per cent of control", "setting": "[13]", "result": 87, "unit": "%"},
      {"measurement": "kinase still bound, per cent of control", "setting": "[14]", "result": 89, "unit": "%"},
      {"measurement": "kinase still bound, per cent of control", "setting": "[15]", "result": 96, "unit": "%"},
      {"measurement": "kinase still bound, per cent of control", "setting": "[16]", "result": 92, "unit": "%"},
      {"measurement": "kinase still bound, per cent of control", "setting": "[17]", "result": 100, "unit": "%"},
      {"measurement": "kinase still bound, per cent of control", "setting": "[18]", "result": 100, "unit": "%"},
      {"measurement": "kinase still bound, per cent of control", "setting": "[19]", "result": 94, "unit": "%"},
      {"measurement": "kinase still bound, per cent of control", "setting": "[20]", "result": 99, "unit": "%"},
      {"measurement": "kinase still bound, per cent of control", "setting": "[21]", "result": 87, "unit": "%"},
      {"measurement": "kinase still bound, per cent of control", "setting": "[22]", "result": 100, "unit": "%"},
      {"measurement": "kinase still bound, per cent of control", "setting": "[23]", "result": 100, "unit": "%"},
      {"measurement": "kinase still bound, per cent of control", "setting": "[24]", "result": 100, "unit": "%"},
      {"measurement": "kinase still bound, per cent of control", "setting": "[25]", "result": 100, "unit": "%"},
      {"measurement": "kinase still bound, per cent of control", "setting": "[26]", "result": 96, "unit": "%"},
      {"measurement": "kinase still bound, per cent of control", "setting": "[27]", "result": 100, "unit": "%"},
      {"measurement": "kinase still bound, per cent of control", "setting": "[28]", "result": 95, "unit": "%"},
      {"measurement": "kinase still bound, per cent of control", "setting": "[29]", "result": 100, "unit": "%"},
      {"measurement": "kinase still bound, per cent of control", "setting": "[30]", "result": 79, "unit": "%"},
      {"measurement": "kinase still bound, per cent of control", "setting": "[31]", "result": 100, "unit": "%"},
      {"measurement": "kinase still bound, per cent of control", "setting": "[32]", "result": 100, "unit": "%"},
      {"measurement": "kinase still bound, per cent of control", "setting": "[33]", "result": 89, "unit": "%"},
      {"measurement": "kinase still bound, per cent of control", "setting": "[34]", "result": 78, "unit": "%"},
      {"measurement": "kinase still bound, per cent of control", "setting": "[35]", "result": 87, "unit": "%"},
      {"measurement": "kinase still bound, per cent of control", "setting": "[36]", "result": 100, "unit": "%"},
      {"measurement": "kinase still bound, per cent of control", "setting": "[37]", "result": 96, "unit": "%"},
      {"measurement": "kinase still bound, per cent of control", "setting": "[38]", "result": 94, "unit": "%"},
      {"measurement": "kinase still bound, per cent of control", "setting": "[39]", "result": 89, "unit": "%"},
      {"measurement": "kinase still bound, per cent of control", "setting": "[40]", "result": 100, "unit": "%"},
      {"measurement": "kinase still bound, per cent of control", "setting": "[41]", "result": 100, "unit": "%"}
    ]}
  ]
}
